According to PubChem BioAssay AID330 (DTP/NCI, 2004):
Where “and” joins values, the source holds several entries; their conditions need not be identical. Identical values can stand only once. Inconclusive results and toxic doses are left out. How the source made its calls: active means survival T/C of 150% or more; inactive means T/C below 125% in these data.

System: P388 leukemia ip, CD2F1 mice, survival T/C
Test: NCI In Vivo Anticancer Drug Screen. Data for tumor model P388 Leukemia (intraperitoneal) in CD2F1 (CDF1) mice
Settings: endpoint: median survival time, higher = longer survival
How it was run: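 Mice carrying the transplanted tumor received test compound or vehicle. Survival was recorded in each group, and the value is the treated-group measurement divided by that of the vehicle-treated control group.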

[1] = dose: 50.0 mg/kg/injection, schedule: Q01DX005 (ip), vehicle: Klucel (hydroxypropylcellulose) (HPC)
[2] = dose: 100.0 mg/kg/injection, schedule: Q01DX005 (ip), vehicle: Klucel (hydroxypropylcellulose) (HPC)
[3] = dose: 200.0 mg/kg/injection, schedule: Q01DX005 (ip), vehicle: Klucel (hydroxypropylcellulose) (HPC)
[4] = dose: 50.0 mg/kg/injection, schedule: Q01DX009 (ip), vehicle: Klucel (hydroxypropylcellulose) (HPC)

Measured: T/C

COc1ccc(-c2cc(-c3cc(-c4ccc(OC)cc4)on3)no2)cc1
inactive: dose: 60.0 mg/kg/injection, schedule: Q01DX005 (ip), vehicle: saline 100 % of control | dose: 120.0 mg/kg/injection, schedule: Q01DX005 (ip), vehicle: saline 92 % of control | dose: 240.0 mg/kg/injection, schedule: Q01DX005 (ip), vehicle: saline 97 % of control

O=C(NNC(=S)NC1OCC(O)C(O)C1O)c1ccco1 (centres undefined)
inactive: [1] 99 % of control and 102 % of control | [2] 100 % of control and 102 % of control | [3] 104 % of control and 106 % of control | dose: 400.0 mg/kg/injection, schedule: Q01DX005 (ip), vehicle: Klucel (hydroxypropylcellulose) (HPC) 98 % of control

NC(=S)Nc1cccc2ccccc12
inactive: dose: 6.25 mg/kg/injection, schedule: Q01DX009 (ip), vehicle: saline with Tween-80 100 % of control and 112 % of control | dose: 12.5 mg/kg/injection, schedule: Q01DX009 (ip), vehicle: saline with Tween-80 113 % of control and 94 % of control | dose: 25.0 mg/kg/injection, schedule: Q01DX009 (ip), vehicle: saline with Tween-80 104 % of control and 91 % of control | dose: 50.0 mg/kg/injection, schedule: Q01DX009 (ip), vehicle: saline with Tween-80 94 % of control

CN(C)NP(=O)(NN(C)C)Oc1ccccc1
inactive: dose: 50.0 mg/kg/injection, schedule: Q01DX005 (ip), vehicle: saline 97 % of control | dose: 100.0 mg/kg/injection, schedule: Q01DX005 (ip), vehicle: saline 99 % of control | dose: 200.0 mg/kg/injection, schedule: Q01DX005 (ip), vehicle: saline 103 % of control

Cc1cc(Cl)ccc1OCC1OC(=O)C(C)(C)O1 (centres undefined)
inactive: [4] 100 % of control | dose: 100.0 mg/kg/injection, schedule: Q01DX009 (ip), vehicle: Klucel (hydroxypropylcellulose) (HPC) 100 % of control | dose: 200.0 mg/kg/injection, schedule: Q01DX009 (ip), vehicle: Klucel (hydroxypropylcellulose) (HPC) 101 % of control

C[n+]1c2n(c3ccccc31)CCn1c-2[n+](C)c2ccccc21
inactive: dose: 12.5 mg/kg/injection, schedule: Q01DX009 (ip), vehicle: Klucel (hydroxypropylcellulose) (HPC) 100 % of control and 103 % of control and 117 % of control | dose: 25.0 mg/kg/injection, schedule: Q01DX009 (ip), vehicle: Klucel (hydroxypropylcellulose) (HPC) 102 % of control and 103 % of control (2×) | [4] 100 % of control and 120 % of control and 96 % of control

COc1ccc(OC)c(N(CCN2C(=O)c3ccccc3C2=O)C(=O)C2CCC(=O)C2C)c1 (centres undefined)
inactive: dose: 60.0 mg/kg/injection, schedule: Q01DX005 (ip), vehicle: saline with Tween-80 99 % of control | dose: 120.0 mg/kg/injection, schedule: Q01DX005 (ip), vehicle: saline with Tween-80 87 % of control

C=CCSc1ncnc2c1ncn2C1OC(CO)C(O)C1O (centres undefined)
inactive: dose: 100.0 mg/kg/injection, schedule: Q04DX003 (ip), vehicle: saline sonified 105 % of control | dose: 200.0 mg/kg/injection, schedule: Q04DX003 (ip), vehicle: saline sonified 115 % of control | dose: 400.0 mg/kg/injection, schedule: Q04DX003 (ip), vehicle: saline sonified 120 % of control

[CH3][Ge]([Cl])([c]1ccccc1)[c]1cccc2ccccc12 (centres undefined)
inactive: dose: 100.0 mg/kg/injection, schedule: Q04DX003 (ip), vehicle: saline 102 % of control | dose: 200.0 mg/kg/injection, schedule: Q04DX003 (ip), vehicle: saline 97 % of control | dose: 400.0 mg/kg/injection, schedule: Q04DX003 (ip), vehicle: saline 101 % of control

CCC1OC(/C(C)=C/C(C)/C=C/C2C(C)C2/C=C/C2OC(CC(=O)O)CC(O)C2O)CC=C1C (centres undefined)
inactive: dose: 16.82 mg/kg/injection, schedule: Q01DX009 (ip), vehicle: saline 100 % of control | dose: 33.65 mg/kg/injection, schedule: Q01DX009 (ip), vehicle: saline 92 % of control | dose: 67.3 mg/kg/injection, schedule: Q01DX009 (ip), vehicle: saline 94 % of control

CCCCN(CCCC)C1/C(=N\O)C2CC1C1CC=CC21 (centres undefined)
inactive: dose: 60.0 mg/kg/injection, schedule: Q01DX005 (ip), vehicle: saline + Tween-80 + alcohol 95 % of control | dose: 120.0 mg/kg/injection, schedule: Q01DX005 (ip), vehicle: saline + Tween-80 + alcohol 94 % of control | dose: 240.0 mg/kg/injection, schedule: Q01DX005 (ip), vehicle: saline + Tween-80 + alcohol 94 % of control

CC(=O)Nc1ccc(S(=O)(=O)Oc2noc3ccccc23)cc1
inactive: [1] 108 % of control | [2] 96 % of control | [3] 102 % of control

CC(=C\c1ccc(Cl)c(Cl)c1)/C(C)=N/NC(N)=Nc1ccccc1
inactive: dose: 25.0 mg/kg/injection, schedule: Q04DX002 (ip), vehicle: saline with Tween-80 105 % of control | dose: 50.0 mg/kg/injection, schedule: Q04DX002 (ip), vehicle: saline with Tween-80 103 % of control
